How the values were obtained:
Assay type in all cases: in vivo
[1] = tested on: ivy-leaved morning glory (Ipomoea hederacea); experiment: Test G Post-Emergence Protocol; settings: Ipomoea, post-emergence, 312 h, read-out: Morningglory, Ivy-leaved damage rating; for pest or weed control at 15.625 g/ha: 15.625 g ai/ha, evaluated after 13 days (100=total damage to plant; 0=no damage to plant); for pest or weed control at 62.5 g/ha: 62.5 g ai/ha; for pest or weed control at 62.5 g/ha / pest or weed control at 250 g/ha: evaluated after 13 days, 100=total damage to plant, 0=no damage to plant; for pest or weed control at 250 g/ha: 250 g ai/ha
How it was run: (§1)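 A glasshouse post-emergence test: 8-day-old plants sprayed at 15.625, 62.5 or 250 g/ha, then grown at 24/16 °C day/night with 14 h light and 65% humidity. Damage rated 13 days later, 0–100.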

[2] = tested on: giant foxtail (Setaria faberi); experiment: Test G Post-Emergence Protocol; settings: Setaria faberi, post-emergence, 312 h, read-out: Foxtail, Giant damage rating; for pest or weed control at 15.625 g/ha: 15.625 g ai/ha, evaluated after 13 days (100=total damage to plant; 0=no damage to plant); for pest or weed control at 62.5 g/ha: 62.5 g ai/ha
How it was run: as §1

[3] = tested on: redroot pigweed (Amaranthus retroflexus); experiment: Test G Post-Emergence Protocol; settings: Amaranthus retroflexus, post-emergence, 312 h, read-out: Pigweed, Redroot damage rating; for pest or weed control at 15.625 g/ha: 15.625 g ai/ha, evaluated after 13 days (100=total damage to plant; 0=no damage to plant); for pest or weed control at 62.5 g/ha: 62.5 g ai/ha; for pest or weed control at 62.5 g/ha / pest or weed control at 250 g/ha: evaluated after 13 days, 100=total damage to plant, 0=no damage to plant; for pest or weed control at 250 g/ha: 250 g ai/ha
How it was run: as §1

[4] = tested on: corn (Zea mays); experiment: Test G Post-Emergence Protocol; settings: Zea mays, post-emergence, 312 h, read-out: Corn damage rating; for plant injury at 15.625 g/ha: 15.625 g ai/ha, evaluated after 13 days (100=total damage to plant; 0=no damage to plant); for plant injury at 62.5 g/ha: 62.5 g ai/ha; for plant injury at 62.5 g/ha / plant injury at 250 g/ha: evaluated after 13 days, 100=total damage to plant, 0=no damage to plant; for plant injury at 250 g/ha: 250 g ai/ha
How it was run: as §1

[5] = tested on: velvetleaf (Abutilon theophrasti); experiment: Test G Post-Emergence Protocol; settings: Abutilon theophrasti, post-emergence, 312 h, read-out: Velvetleaf damage rating; for pest or weed control at 15.625 g/ha: 15.625 g ai/ha, evaluated after 13 days (100=total damage to plant; 0=no damage to plant); for pest or weed control at 62.5 g/ha: 62.5 g ai/ha; for pest or weed control at 62.5 g/ha / pest or weed control at 250 g/ha: evaluated after 13 days, 100=total damage to plant, 0=no damage to plant; for pest or weed control at 250 g/ha: 250 g ai/ha
How it was run: as §1

[6] = tested on: barnyardgrass (Echinochloa crus-galli); experiment: Test G Post-Emergence Protocol; settings: Echinochloa crus-galli, post-emergence, 312 h, read-out: Barnyardgrass damage rating; for pest or weed control at 15.625 g/ha: 15.625 g ai/ha, evaluated after 13 days (100=total damage to plant; 0=no damage to plant); for pest or weed control at 62.5 g/ha: 62.5 g ai/ha; for pest or weed control at 62.5 g/ha / pest or weed control at 250 g/ha: evaluated after 13 days, 100=total damage to plant, 0=no damage to plant; for pest or weed control at 250 g/ha: 250 g ai/ha
How it was run: as §1

[7] = tested on: ivy-leaved morning glory (Ipomoea hederacea); experiment: Test G Pre-Emergence Protocol; settings: Ipomoea, pre-emergence, 312 h, evaluated after 13 days; for pest or weed control at 15.625 g/ha: 15.625 g ai/ha; for pest or weed control at 15.625 g/ha / pest or weed control at 250 g/ha: read-out: Morningglory, Ivy-leaved damage rating (100=total damage to plant; 0=no damage to plant); for pest or weed control at 62.5 g/ha: 62.5 g ai/ha, 100=total damage to plant, 0=no damage to plant, read-out: Morningglory, Ivy-leaved damage rating; for pest or weed control at 250 g/ha: 250 g ai/ha
How it was run: (§2)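 Visual injury (0–100) at day 13 after a single pre-emergence spray. Rates: 15.625, 62.5, 250 g/ha in acetone–water 50:50 with 0.5% Tween 20. Growth conditions: 24/16° C, 14 h light, 65% humidity.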

[8] = tested on: giant foxtail (Setaria faberi); experiment: Test G Pre-Emergence Protocol; settings: Setaria faberi, pre-emergence, 312 h, evaluated after 13 days; for pest or weed control at 15.625 g/ha: 15.625 g ai/ha; for pest or weed control at 15.625 g/ha / pest or weed control at 250 g/ha: read-out: Foxtail, Giant damage rating (100=total damage to plant; 0=no damage to plant); for pest or weed control at 62.5 g/ha: 62.5 g ai/ha, 100=total damage to plant, 0=no damage to plant, read-out: Foxtail, Giant damage rating; for pest or weed control at 250 g/ha: 250 g ai/ha
How it was run: as §2

[9] = tested on: redroot pigweed (Amaranthus retroflexus); experiment: Test G Pre-Emergence Protocol; settings: Amaranthus retroflexus, pre-emergence, 312 h, evaluated after 13 days; for pest or weed control at 15.625 g/ha: 15.625 g ai/ha; for pest or weed control at 15.625 g/ha / pest or weed control at 250 g/ha: read-out: Pigweed, Redroot damage rating (100=total damage to plant; 0=no damage to plant); for pest or weed control at 62.5 g/ha: 62.5 g ai/ha, 100=total damage to plant, 0=no damage to plant, read-out: Pigweed, Redroot damage rating; for pest or weed control at 250 g/ha: 250 g ai/ha
How it was run: as §2

[10] = tested on: corn (Zea mays); experiment: Test G Pre-Emergence Protocol; settings: Zea mays, pre-emergence, 312 h, evaluated after 13 days; for plant injury at 15.625 g/ha: 15.625 g ai/ha; for plant injury at 15.625 g/ha / plant injury at 250 g/ha: read-out: Corn damage rating (100=total damage to plant; 0=no damage to plant); for plant injury at 62.5 g/ha: 62.5 g ai/ha, 100=total damage to plant, 0=no damage to plant, read-out: Corn damage rating; for plant injury at 250 g/ha: 250 g ai/ha
How it was run: as §2

[11] = tested on: velvetleaf (Abutilon theophrasti); experiment: Test G Pre-Emergence Protocol; settings: Abutilon theophrasti, pre-emergence, 312 h, evaluated after 13 days; for pest or weed control at 15.625 g/ha: 15.625 g ai/ha; for pest or weed control at 15.625 g/ha / pest or weed control at 250 g/ha: read-out: Velvetleaf damage rating (100=total damage to plant; 0=no damage to plant); for pest or weed control at 62.5 g/ha: 62.5 g ai/ha, 100=total damage to plant, 0=no damage to plant, read-out: Velvetleaf damage rating; for pest or weed control at 250 g/ha: 250 g ai/ha
How it was run: as §2

[12] = tested on: barnyardgrass (Echinochloa crus-galli); experiment: Test G Pre-Emergence Protocol; settings: Echinochloa crus-galli, pre-emergence, 312 h, evaluated after 13 days; for pest or weed control at 15.625 g/ha: 15.625 g ai/ha; for pest or weed control at 15.625 g/ha / pest or weed control at 250 g/ha: read-out: Barnyardgrass damage rating (100=total damage to plant; 0=no damage to plant); for pest or weed control at 62.5 g/ha: 62.5 g ai/ha, 100=total damage to plant, 0=no damage to plant, read-out: Barnyardgrass damage rating; for pest or weed control at 250 g/ha: 250 g ai/ha
How it was run: as §2

[13] = evaluated after 13 days, 100=total damage to plant, 0=no damage to plant

Compound	pest or weed control at 15.625 g/ha [1] [%]	pest or weed control at 62.5 g/ha [1] [%]	pest or weed control at 250 g/ha [1] [%]	pest or weed control at 15.625 g/ha [2] [%]	pest or weed control at 62.5 g/ha [2, 13] [%]	pest or weed control at 15.625 g/ha [3] [%]	pest or weed control at 62.5 g/ha [3] [%]	pest or weed control at 250 g/ha [3] [%]	plant injury at 15.625 g/ha [4] [%]	plant injury at 62.5 g/ha [4] [%]	plant injury at 250 g/ha [4] [%]	pest or weed control at 15.625 g/ha [5] [%]	pest or weed control at 62.5 g/ha [5] [%]	pest or weed control at 250 g/ha [5] [%]	pest or weed control at 15.625 g/ha [6] [%]	pest or weed control at 62.5 g/ha [6] [%]	pest or weed control at 250 g/ha [6] [%]	pest or weed control at 15.625 g/ha [7] [%]	pest or weed control at 62.5 g/ha [7] [%]	pest or weed control at 250 g/ha [7] [%]	other results
CN1C[C@H](c2ccc(C(F)(F)F)cc2)[C@@H](C(=O)Nc2cccnc2[N+](=O)[O-])C1=O (racemic) [Compound 1824]	0	0	10	0	0	0	0	20	0	0	20	0	0	70	0	0	10	0	0	0	pest or weed control at 250 g/ha ([2]; 250 g ai/ha, evaluated after 13 days, 100=total damage to plant, 0=no damage to plant): 10%; pest or weed control at 15.625 g/ha [8]: 0%; pest or weed control at 62.5 g/ha [8]: 10%; pest or weed control at 250 g/ha [8]: 80%; pest or weed control at 15.625 g/ha [9]: 0%; pest or weed control at 62.5 g/ha [9]: 0%; pest or weed control at 250 g/ha [9]: 20%; plant injury at 15.625 g/ha [10]: 0%; plant injury at 62.5 g/ha [10]: 0%; plant injury at 250 g/ha [10]: 0%; pest or weed control at 15.625 g/ha [11]: 0%; pest or weed control at 62.5 g/ha [11]: 0%; pest or weed control at 250 g/ha [11]: 0%; pest or weed control at 15.625 g/ha [12]: 0%; pest or weed control at 62.5 g/ha [12]: 0%; pest or weed control at 250 g/ha [12]: 70%
CN1CC(C2CCN=C(C(C)(C)C)N2)C(C(=O)Nc2ccc(F)c(F)c2F)C1=O (centres unmarked) [Compound 1771]	0	0	0	0	0	0	0	0	0	0	0	0	0	0	0	0	0	0	0	0	pest or weed control at 15.625 g/ha [8]: 0%; pest or weed control at 62.5 g/ha [8]: 0%; pest or weed control at 250 g/ha [8]: 0%; pest or weed control at 15.625 g/ha [9]: 0%; pest or weed control at 62.5 g/ha [9]: 0%; pest or weed control at 250 g/ha [9]: 0%; plant injury at 15.625 g/ha [10]: 0%; plant injury at 62.5 g/ha [10]: 0%; plant injury at 250 g/ha [10]: 0%; pest or weed control at 15.625 g/ha [11]: 0%; pest or weed control at 62.5 g/ha [11]: 0%; pest or weed control at 250 g/ha [11]: 0%; pest or weed control at 15.625 g/ha [12]: 0%; pest or weed control at 62.5 g/ha [12]: 0%; pest or weed control at 250 g/ha [12]: 0%

— patent US12077503B2, “Substituted cyclic amides and their use as herbicides” (FMC CORPORATION, priority 2015, dated 2024)
